Assay results as given in patent US9504747B2, “Lipids and lipid compositions for the delivery of active agents” (Novartis AG, priority 2013, dated 2016).

Key:
[1] = system: PLK-1 mRNA; assay: LS411N Xenograft Assay with PLK1-424 siRNA lipid nanoparticles; type: in vivo, Female Nu/Nu mice; settings: percent knock down of PLK-1 mRNA in tumor vs control, 3 mg/kg IV daily for three days, 24 h post last injection
Procedure: Female Nu/Nu mice (6-8 weeks old) were implanted subcutaneously with 5×10^6 LS411N cells. Tumor growth was monitored by caliper measurement before treatment initiation. Mice bearing 150-250 mm^3 subcutaneous tumors were randomized and enrolled in the study. The stock siRNA formulations were diluted to […] with PBS for dosing. Animals enrolled in different groups received a single daily bolus IV injection of 3 mg/kg siRNA for three days. Tumors were harvested 24 hours post last injection to assess target gene regulation by qRT-PCR.
Lipid nanoparticles comprising lipid compounds of formula (I) and the PLK1-424 siRNA duplex sequence listed above were tested in the LS411N Xenograft Assay. The results of this assay are given in Table 5 below as a percent knock down of PLK-1 mRNA as compared to the control when administered as a single daily dose for three days at a dose of 3 mg/kg.

[2] = Polydispersity index (PDI) of the lipid nanoparticle (dynamic light scattering); type: physicochemical
Procedure, shortened: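 LNPs made by impinging-jet mixing of lipids in ethanol with siRNA in citrate buffer, pH 4-6, siRNA:total lipid ~0.05 wt/wt; sterile filtered, stored at 4° C. Samples diluted in PBS to ~200-400 kcts count rate before dynamic light scattering. PDI reported as intensity-weighted average of fully formed particles.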

[3] = pKa measurement of the cationic lipid (TNS fluorescence vs pH); type: physicochemical; settings: probe TNS (fluorescent probe), pKa of the cationic lipid of formula (I)
Procedure, shortened: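 Lipid (2 mM ethanol stock) mixed with TNS probe (0.3 mM stock) and diluted into twelve sodium phosphate/citric acid buffers of varying pH. TNS fluorescence read after background subtraction and normalized to the lowest-pH value. pKa taken as the pH at half-maximal normalized fluorescence on the smoothed curve, precise to about 0.1 units.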

[4] = Particle size of the lipid nanoparticle (dynamic light scattering, Malvern Zetasizer); type: physicochemical; settings: Z-average
Source text: The lipid nanoparticles have a size of about 1 to about 2,500 nm, about 1 to about 1,500 nm, about 1 to about 1,000 nm, in a sub-embodiment about 50 to about 600 nm, in a sub-embodiment about 50 to about 400 nm, in a sub-embodiment about 50 to about 250 nm, and in a sub-embodiment about 50 to about 150 nm. Unless indicated otherwise, all sizes referred to herein are the average sizes (diameters) of the fully formed nanoparticle, as measured by dynamic light scattering on a Malvern Zetasizer. The nanoparticle sample is diluted in phosphate buffered saline (PBS) so that the count rate is approximately 200-400 kcts. The data is presented as a weighted average of the intensity measure. The lipid nanoparticles (LNPs) were formed by mixing equal volumes of lipids dissolved in alcohol with siRNA dissolved in a citrate buffer by an impinging jet process. […] The siRNA to total lipid ratio is approximately 0.05 (wt/wt). Where a LNP formulation contains four lipid components, the molar ratios correspond to the type of lipid as it appears in the first four columns of the table, in the order that they appear. The ratio of the lipids ranges from 20 to 70 mole percent for the cationic lipid with a target of 40-60, the mole percent of helper lipid ranges from 20 to 70 with a target of 30 to 50, the mole percent of neutral lipid ranges from 0-30, the mole percent of PEG lipid has a range from 1 to 6 with a target of 2 to 5. The concentration of siRNA solution ranges from 0.7 to 1.0 mg/mL with a target of 0.8 to 0.9 mg/mL in a sodium citrate: sodium chloride buffer pH 4-6, with a target of 4.5-5.5. The LNPs are formed by mixing equal volumes of lipid solution in ethanol with siRNA dissolved in a citrate buffer by an impinging jet process through a mixing device with ID ranging from 0.25 to 2.0 mm at a flow rate from 10 to 640 mL/min. The mixed LNP solution is held at room temperature for 0-24 hrs prior to a dilution step. […] The final product is sterile filtered and stored at 4° C. Unless indicated otherwise, all particle size measurements referred to in Tables 4 and 5 are the Z-average particle size of the fully formed nanoparticle, as measured by dynamic light scattering on a Malvern Zetasizer. The nanoparticle sample was diluted in phosphate buffered saline (PBS) so that the count rate is approximately 200-400 kcts.

[5] = Table 4, FVII siRNA LNP, Chol/DSPC/stealth lipid PEG-DMG, 45/44/9/2
[6] = Table 4, FVII siRNA LNP, Chol/DSPC/stealth lipid S010, 45/44/9/2
[7] = Table 5, PLK1-424 siRNA LNP, stealth lipid PEG-DSG, 45/44/9/2
[8] = Table 5, PLK1-424 siRNA LNP, stealth lipid S010, 45/44/9/2
[9] = Table 4, FVII siRNA LNP, Chol/DSPC/stealth lipid PEG-DMG, molar ratio 45/44/9/2
[10] = Table 4, FVII siRNA LNP, Chol/DSPC/stealth lipid S010, molar ratio 45/44/9/2
[11] = Table 5, PLK1-424 siRNA LNP, Chol/DSPC/stealth lipid PEG-DSG, 45/44/9/2
[12] = Table 5, PLK1-424 siRNA LNP, Chol/DSPC/stealth lipid S010, 45/44/9/2

Row | Structure (SMILES) | LS411 KD 3 × 3 mg/Kg ([1]; stealth lipid PEG-DSG) | LS411 KD 3 × 3 mg/Kg ([1]; stealth lipid S010) | PDI [2, 5] | PDI [2, 6] | PDI [2, 7] | PDI [2, 8] | pKa ([3]; Table 4) | pKa ([3]; Table 5) | Size (nm) [4, 9] | Size (nm) [4, 10] | Size (nm) [4, 11] | Size (nm) [4, 12]
1 | CCCCC/C=C\C/C=C\CCCCCCCC(=O)OCCCCOc1cc(CN(C)C)cc(OCCCCOC(=O)CCCCCCC/C=C\C/C=C\CCCCC)c1 [Example 38] | 58% | 60% | 0.02 | 0.04 | 0.036 | 0.036 | 5.93 | 5.93 | 108.0 nm | 120 nm | 116.8 nm | 116.8 nm
2 | CCCCC/C=C\C/C=C\CCCCCCCC(=O)OCCCOc1cc(CN(C)C)cc(OCCCOC(=O)CCCCCCC/C=C\C/C=C\CCCCC)c1 [Example 39] |  | 55% |  | 0.044 |  | 0.039 | 5.91 | 5.91 |  | 122.9 nm |  | 114.3 nm
3 | CCCCCCCC(=O)OCCCCCCCCOc1cc(CN(C)C)cc(OCCCCCCCCOC(=O)CCCCCCC)c1 [Example 42] |  | 50% |  | 0.084 |  | 0.06 | 5.93 | 5.93 |  | 120 nm |  | 181.1 nm
4 | CCCCCCCC(=O)OCCCCCCCCCCOc1cc(CN(C)C)cc(OCCCCCCCCCCOC(=O)CCCCCCC)c1 [Example 43] |  | 40% | 0.08 | 0.066 |  | 0.046 | 5.85 | 5.85 | 157.8 nm | 121.9 nm |  | 150.7 nm
5 | CCCCCCCCCC(=O)OCCCCCCCCOc1cc(CN(C)C)cc(OCCCCCCCCOC(=O)CCCCCCCCC)c1 [Example 52] | 69% | 50% | 0.1 | 0.052 | 0.06 | 0.06 | 5.96 | 5.96 | 109.4 nm | 145.4 nm | 132.2 nm | 132.2 nm
6 | CCCCCCCC(=O)OCC(CCOc1cc(CN(C)C)cc(OCCC(COC(=O)CCCCCCC)OC(=O)CCCCCCC)c1)OC(=O)CCCCCCC (centres unmarked) [Example 91] |  | 45% | 0.06 | 0.053 |  | 0.032 | 6.01 | 6.01 |  |  |  | 
